In ChEMBL document CHEMBL1152357, “Synthesis and biological activity of heteroaryl 3-(1,1-dioxo-2H-(1,2,4)-benzothiadizin-3-yl)-4-hydroxy-2(1H)-quinolinone derivatives as hepatitis C virus NS5B polymerase inhibitors” (Bioorg Med Chem Lett, 2009) one finds IC50 and Activity data, which are given here for 41 molecules.

Data set [1] concerns Hepatitis C virus. As to the kind of experiment: Inhibition of HCV 1b NS5B polymerase expressed in Sf9 cells. Further details: species or system Hepatitis C virus subtype 1b.
For data set [2], the system named is Hepatitis C virus. As to the kind of experiment: Antiviral activity against HCV 1b infected in human hepatoma cells by replicon assay. Format: functional, organism-based, Hepacivirus hominis. Conditions: genotype 1b.
The target of data set [3] is Albumin (Homo sapiens, UniProt P02768). Nature of the data set: Binding affinity to human serum albumin. Conditions: isolated protein. The data set is classed as ADME.
Albumin, sequence (P02768 whole entry): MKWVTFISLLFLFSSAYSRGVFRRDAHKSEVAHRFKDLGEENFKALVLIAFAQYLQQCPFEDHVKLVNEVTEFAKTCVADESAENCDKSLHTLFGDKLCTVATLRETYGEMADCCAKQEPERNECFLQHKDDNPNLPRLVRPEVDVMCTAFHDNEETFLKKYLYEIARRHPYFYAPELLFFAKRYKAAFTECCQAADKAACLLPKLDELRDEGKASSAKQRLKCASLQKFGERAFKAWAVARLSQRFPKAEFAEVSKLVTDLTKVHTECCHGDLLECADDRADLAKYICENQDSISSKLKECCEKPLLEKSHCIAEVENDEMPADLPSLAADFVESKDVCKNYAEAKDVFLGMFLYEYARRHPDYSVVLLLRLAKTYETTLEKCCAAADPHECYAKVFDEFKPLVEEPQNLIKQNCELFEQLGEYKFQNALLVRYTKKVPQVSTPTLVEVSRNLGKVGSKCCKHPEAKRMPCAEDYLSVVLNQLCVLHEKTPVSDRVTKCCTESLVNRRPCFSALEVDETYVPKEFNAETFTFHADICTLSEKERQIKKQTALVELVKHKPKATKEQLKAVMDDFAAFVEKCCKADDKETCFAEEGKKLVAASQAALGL

With `O=c1c(C2=NS(=O)(=O)c3cc(O)ccc3N2)c(O)c2cccnc2n1CCC1CC1`, the IC50 in data set [1] is 12 nM; in data set [2], 542 nM. Moreover, the Activity in data set [3] was 98.8%.
For `CC(C)CCn1c(=O)c(C2=NS(=O)(=O)c3cc(O)ccc3N2)c(O)c2cccnc21` the same measures were 16 nM, 473 nM and 99%.
For `CC(C)CCn1c(=O)c(C2=NS(=O)(=O)c3cc(O)ccc3N2)c(O)c2sccc21` the same measures were 16 nM, 1190 nM and 99%.
As to `CSc1ncc2c(O)c(C3=NS(=O)(=O)c4ccccc4N3)c(=O)n(CCC(C)C)c2n1`, in data set [1], the IC50 was more than 30000 nM.
As to `CC(C)CCn1c(=O)c(C2=NS(=O)(=O)c3cc(O[C@H](C)C(N)=O)ccc3N2)c(O)c2sccc21`, the IC50 in data set [1] was less than 5 nM; in data set [2], 114 nM. The molecule also yielded an Activity in data set [3] of 98.3%.
In data set [1], `CC(C)CCn1c(=O)c(C2=NS(=O)(=O)C3=C(CCN(CCCN)C3)N2)c(O)c2ccccc21` came in with an IC50 of 728 nM. Moreover, the Activity in data set [3] is given as 98.3%.
For `COC(=O)CN1CCC2=C(C1)S(=O)(=O)N=C(c1c(O)c3ccccc3n(CCC(C)C)c1=O)N2` the same measures were 879 nM and 97.6%.
For `CNC(=O)N1CCC2=C(C1)S(=O)(=O)N=C(c1c(O)c3ccccc3n(CCC(C)C)c1=O)N2` the same measures were 774 nM and 98.2%.
Turning to `CC(C)CCn1c(=O)c(C2=NS(=O)(=O)c3cc(Cl)sc3N2)c(O)c2ccccc21`, the IC50 in data set [1] was 57 nM; in data set [2] it was more than 20000 nM.
With `CC(C)CCn1c(=O)c(C2=NS(=O)(=O)c3ncccc3N2)c(O)c2ccccc21`, the figures for the IC50 in data set [1] and in data set [2] were 31 nM and 743 nM, respectively. In addition, the Activity in data set [3] turned out to be 98.7%.
With `CC(C)CCn1c(=O)c(C2=NS(=O)(=O)C3=C(CCN(CCC#N)C3)N2)c(O)c2ccccc21`, the IC50 in data set [1] came out at 132 nM; in data set [2] it was 4320 nM.
In the case of `NC(=O)COc1ccc2c(c1)S(=O)(=O)N=C(c1c(O)c3cccnc3n(CCC3CC3)c1=O)N2`, the IC50 in data set [1] is less than 5 nM; in data set [2] it was 51 nM. Further, the Activity in data set [3] turned out to be 97.8%.
On to `CC(C)CCn1c(=O)c(C2=NS(=O)(=O)C3=C(CCN(CCc4nnn[nH]4)C3)N2)c(O)c2ccccc21`, for which the figures for the IC50 in data set [1] and in data set [2] were 289 nM and more than 30000 nM, respectively. The molecule further yielded an Activity in data set [3] of 98.7%.
With `Cc1nn(C)c2c1S(=O)(=O)N=C(c1c(O)c3ccccc3n(CCC(C)C)c1=O)N2`, the values for the IC50 in data set [1] and in data set [2] were 200 nM and more than 20000 nM, respectively. Also, the Activity in data set [3] is listed as 98.5%.
With `CC(C)CCn1c(=O)c(C2=NS(=O)(=O)c3cccnc3N2)c(O)c2ccccc21`, the IC50 in data set [1] came out at 51 nM; in data set [2] it was 1680 nM.
In the case of `CC(=O)N1CCC2=C(C1)S(=O)(=O)N=C(c1c(O)c3ccccc3n(CCC(C)C)c1=O)N2`, in data set [1], the IC50 came to 1530 nM. This molecule registered an Activity in data set [3] of 98%.
For the molecule `CC(C)CCn1c(=O)c(C2=NS(=O)(=O)C3=C(CCN(CCC(N)=O)C3)N2)c(O)c2ccccc21`, the IC50 in data set [1] is 288 nM; in data set [2], more than 20000 nM. The molecule also had an Activity in data set [3] of 98%.
In the same order, the values of `CC(C)CCn1c(=O)c(C2=NS(=O)(=O)c3ccccc3N2)c(O)c2cccnc21` are 212 nM, 1360 nM and more than 99.9%.
Regarding `CC(C)CCn1c(=O)c(C2=NS(=O)(=O)c3cc(O[C@H](C)C(N)=O)ccc3N2)c(O)c2cccnc21`, the IC50 in data set [1] is less than 5 nM; in data set [2], 47 nM. For the same molecule, the Activity in data set [3] was 98.3%.
For `CC(C)CCn1c(=O)c(C2=NS(=O)(=O)c3cc(O)ccc3N2)c(O)c2ccsc21` the same measures were 25 nM, 471 nM and 99.1%.
Regarding `CC(C)CCn1c(=O)c(C2=NS(=O)(=O)c3ccccc3N2)c(O)c2cc(Br)sc21`, the midpoint of inhibition in data set [1], the IC50, lay at 1170 nM. This molecule also registered an Activity in data set [3] of more than 99.9%.
`CC(C)CCn1c(=O)c(C2=NS(=O)(=O)c3c(cc[nH]c3=O)N2)c(O)c2ccccc21`: the half-maximal inhibitory concentration (IC50) came to 16 nM in data set [1] and 13700 nM in data set [2].
With `CC(C)CCn1c(=O)c(C2=NS(=O)(=O)c3c[n+]([O-])ccc3N2)c(O)c2ccccc21`, the IC50 was 18 nM in data set [1] and 2380 nM in data set [2]. This molecule showed an Activity in data set [3] of 97.7%.
`CC(C)CCn1c(=O)c(C2=NS(=O)(=O)c3cc(OCC(N)=O)ccc3N2)c(O)c2ccccc21`: the IC50 in data set [1] turned out to be 6 nM; in data set [2], 15 nM. Besides, the Activity in data set [3] turned out to be 99.2%.
As for `CC(C)CCn1c(=O)c(C2=NS(=O)(=O)c3ccccc3N2)c(O)c2ccccc21`, the IC50 in data set [2] was determined as 417 nM. In addition, the Activity in data set [3] is more than 99.9%.
For the molecule `CC(C)CCn1c(=O)c(C2=NS(=O)(=O)c3c(sc(Cl)c3Br)N2)c(O)c2ccccc21`, the half-inhibitory concentration (IC50) in data set [1] turned out to be 3020 nM.
Same read-out and setting: with `CC(C)CCn1c(=O)c(C2=NS(=O)(=O)c3ccccc3N2)c(O)c2cc(-c3ccccc3)sc21` the figure was more than 30000 nM.
In turn, `C[C@@H](Oc1ccc2c(c1)S(=O)(=O)N=C(c1c(O)c3cccnc3n(CCC3CC3)c1=O)N2)C(N)=O` came in with an IC50 in data set [1] of less than 5 nM. For the same molecule, in data set [3], the Activity was 97.8%.
For `CCN1CCC2=C(C1)S(=O)(=O)N=C(c1c(O)c3ccccc3n(CCC(C)C)c1=O)N2`, the IC50 in data set [1] amounted to 679 nM; in data set [2], 40000 nM. Also, the Activity in data set [3] is 97.9%.
For `CC(C)CCn1c(=O)c(C2=NS(=O)(=O)c3cc(OCC(N)=O)ccc3N2)c(O)c2sccc21` the same measures were less than 5 nM, 126 nM and 98.3%.
In the same order, the values of `CC(C)CCn1c(=O)c(C2=NS(=O)(=O)C3=C(CCNC3)N2)c(O)c2ccccc21` are 604 nM, 12200 nM and 98.2%.
As to `CC(C)CCn1c(=O)c(C2=NS(=O)(=O)C3=C(CCN(CC(=O)O)C3)N2)c(O)c2ccccc21`, the results for the IC50 in data set [1] and in data set [2] were 276 nM and more than 20000 nM, respectively.
As to `CC(C)CCn1c(=O)c(C2=NS(=O)(=O)c3cc(OCC(N)=O)ccc3N2)c(O)c2ccsc21`, the IC50 was less than 5 nM in data set [1] and 238 nM in data set [2]. Also, the Activity in data set [3] turned out to be 98.7%.
In the case of `CC(C)CCn1c(=O)c(C2=NS(=O)(=O)c3ccccc3N2)c(O)c2cn[nH]c21`, the IC50 in data set [1] came to 4940 nM. This molecule also registered an Activity in data set [3] of 97.6%.
Turning to `CC(C)CCn1c(=O)c(C2=NS(=O)(=O)c3ccccc3N2)c(O)c2ccsc21`, the values for the IC50 in data set [1] and in data set [2] were 132 nM and 1160 nM, respectively. In addition, in data set [3], the Activity is on record as more than 99.9%.
For `CC(C)CCn1c(=O)c(C2=NS(=O)(=O)c3cnccc3N2)c(O)c2ccccc21` the same measures were 20 nM, 226 nM and 99%.
In the same order, the values of `CC(C)CCn1c(=O)c(C2=NS(=O)(=O)c3ccsc3N2)c(O)c2ccccc21` are 20 nM, 2890 nM and 99.5%.
For the molecule `CC(C)CCn1c(=O)c(C2=NS(=O)(=O)c3ccccc3N2)c(O)c2cnn(C)c21`, half-maximal inhibition in data set [1] (IC50) was put at 3340 nM. In data set [3], this molecule yielded an Activity of 97%.
For the molecule `CC(C)CCn1c(=O)c(C2=NS(=O)(=O)c3ccccc3N2)c(O)c2sccc21`, the results for the IC50 in data set [1] and in data set [2] were more than 48 nM and 942 nM, respectively. The same molecule came in with an Activity in data set [3] of more than 99.9%.
In data set [1], `CC(C)CCn1c(=O)c(C2=NS(=O)(=O)C3=C(CCN(C(=O)Nc4ccccc4)C3)N2)c(O)c2ccccc21` came in with an IC50 of 975 nM. The molecule further came in with an Activity in data set [3] of 99.4%.
`CC(C)CCn1c(=O)c(C2=Nc3ccc(OCC(N)=O)cc3S(=O)(=O)N2)c(O)c2cccnc21`: the concentration for half-maximal inhibition (IC50) in data set [1] was less than 5 nM; in data set [2], 52 nM. In data set [3], the Activity is on record as 98.4%.

By IC50 is commonly meant the point on the concentration scale where inhibition reaches its midpoint. Read a low IC50 as higher potency.
